Source: patent publication US8999691B2 (priority 2010, dated 2015)

Tests used:
[1] = target: Botryotinia fuckeliana glucose dehydrogenase (Bfu-GDH, FAD-GDH), wild type, SEQ ID NO:2 (Botrytis cinerea, UniProt A0A384K3P1); assay: Michaelis-Menten saturation kinetics with glucose (DCIP/PMS dehydrogenase assay); format: biochemical
Excerpt: (§1) Transformants BL21(DE3) for expressing each of the modified enzymes were pre-cultured.

[2] = target: Botryotinia fuckeliana glucose dehydrogenase (Bfu-GDH, SEQ ID NO:2) variant G53A (Botrytis cinerea, UniProt A0A384K3P1, G69A); conditions: glucose 1-40 mM; pH 6.5; partially purified enzyme
Method: (§2) Site-specific mutagenesis was carried out by the QuikChange™ method. In the QuikChange™ method, the pET30c-Bfu-GDH created in Example 1 was used as the template, and amplified by PCR with mutagenesis primers. Next, DpnI was added to the reaction mixture and incubated at 37° C. for 60 minutes to digest the template DNA, and E. coli DH5a was transformed. After culturing overnight in an LB agar culture (50 μg/mL kanamycin), the plasmid was extracted from randomly selected clones, and the sequence was analyzed to confirm that the target mutation was introduced. The resulting PCR products were NdeI and HindIII digested (37° C., 2 hours), ligated with the same restriction enzyme-digested pET30c, and E. coli BL21(DE3) was transformed. After culturing overnight In an LB agar medium (50 μg/mL kanamycin), the plasmid was extracted from randomly selected clones, and the sequence was analyzed to confirm the mutation.
as §1

[3] = target: Botryotinia fuckeliana glucose dehydrogenase (Bfu-GDH, SEQ ID NO:2) variant G53A/S514G (Botrytis cinerea, UniProt A0A384K3P1, G69A/S530G); conditions: glucose 1-40 mM; pH 6.5; partially purified enzyme
Method: as §2, §1

[4] = target: Botryotinia fuckeliana glucose dehydrogenase (Bfu-GDH, SEQ ID NO:2) variant N176E (Botrytis cinerea, UniProt A0A384K3P1, N192E); conditions: glucose 1-40 mM; pH 6.5; partially purified enzyme
Method: as §2, §1

[5] = target: Botryotinia fuckeliana glucose dehydrogenase (Bfu-GDH, SEQ ID NO:2) variant N176K (Botrytis cinerea, UniProt A0A384K3P1, N192K); conditions: glucose 1-40 mM; pH 6.5; partially purified enzyme
Method: as §2, §1

[6] = target: Botryotinia fuckeliana glucose dehydrogenase (Bfu-GDH, SEQ ID NO:2) variant N176R (Botrytis cinerea, UniProt A0A384K3P1, N192R); conditions: glucose 1-40 mM; pH 6.5; partially purified enzyme
Method: as §2, §1

[7] = target: Botryotinia fuckeliana glucose dehydrogenase (Bfu-GDH, SEQ ID NO:2) variant N176S (Botrytis cinerea, UniProt A0A384K3P1, N192S); conditions: glucose 1-40 mM; pH 6.5; partially purified enzyme
Method: as §2, §1

[8] = target: Botryotinia fuckeliana glucose dehydrogenase (Bfu-GDH, SEQ ID NO:2) variant S514G (Botrytis cinerea, UniProt A0A384K3P1, S530G); conditions: glucose 1-40 mM; pH 6.5; partially purified enzyme
Method: as §2, §1

[9] = target: Botryotinia fuckeliana glucose dehydrogenase (Bfu-GDH, SEQ ID NO:2) variant S552C (Botrytis cinerea, UniProt A0A384K3P1, S568C); conditions: glucose 1-40 mM; pH 6.5; partially purified enzyme
Method: as §2, §1

[10] = substrate: OC[C@H]1OC(O)[C@H](O)[C@@H](O)[C@@H]1O; assay: purified protein, by the assay type; format: biochemical, Aspergillus oryzae T1; conditions: other: glucose, DCIP/PMS, pH 6.5, enzyme expressed 20° C./28 h
Excerpt: According to a prediction from the SignalP 3.0 Server, the region from the N-terminus to the Lys residue at the position 23 was predicted to be a signal peptide. A nucleotide sequence which encodes the amino acid sequence having the initiation methionine and the downstream sequence from the Asn residue at the position 24 was designed and totally synthesized. The amino acid sequence of the protein (referred to below as “Ao-GDH”) encoded by the gene thus obtained is shown in SEQ ID NO:4. E. coli BL21(DE3) (F—, ompT, hsdSB(rB- mB-), gal(λcI 857, ind1, Sam7, nin5, LacUV5-T7gene1), dcm(DE3): from Novagen) was used as the host for recombinant production. The gene expression vector used was pET30c (kan, LacI; from Novagen), and the chaperone co-expression vector used was pGro7 (GroEL, GroES; from TaKaRa).
(§3) (10-fold dilution at a final concentration).

[11] = substrate: OC[C@H]1OC(O)[C@H](O)[C@@H](O)[C@@H]1O; assay: purified protein, by the assay type; format: biochemical, Aspergillus oryzae T1; conditions: other: glucose, DCIP/PMS, pH 6.5, enzyme expressed 20° C./28 h; remark: listed apart in the source
Excerpt: as §3

OC[C@H]1OC(O)[C@H](O)[C@@H](O)[C@@H]1O (some centres unmarked) [glucose]
Vmax ([1]; Table 3 (unit not given), glucose): 8.7
Vmax (apparent maximum activity) ([1]; glucose 1-40 mM, pH 6.5, partially purified enzyme): 8.7 U/mg protein
Vmax (apparent maximum activity) [2]: 8.1 U/mg protein
Vmax (apparent maximum activity) [3]: 8.9 U/mg protein
Vmax (apparent maximum activity) [4]: 10.4 U/mg protein
Vmax (apparent maximum activity) [5]: 25.1 U/mg protein
Vmax (apparent maximum activity) [6]: 24.9 U/mg protein
Vmax (apparent maximum activity) [7]: 11.5 U/mg protein
Vmax (apparent maximum activity) [8]: 36.6 U/mg protein
Vmax (apparent maximum activity) [9]: 7.8 U/mg protein

B1: Aspergillus oryzae T1 glucose dehydrogenase (Ao-GDH, FAD-GDH), wild type, SEQ ID NO:4 (Aspergillus oryzae) (protein)
chain: MNTTTYDYIVVGGGTSGLVVANRLSENPDVSVLLLEAGASVFNNPDVTNANGYGLAFGSAIDWQYQSINQSYAGGKQQVLRAGKALGGTSTINGMAYTRAEDVQIDVWQKLGNEGWTWKDLLPYYLKSENLTAPTSSQVAAGAAYNPAVNGKEGPLKVGWSGSLASGNLSVALNRTFQAAGVPWVEDVNGGKMRGFNIYPSTLDVDLNVREDAARAYYFPYDDRKNLHLLENTTANRLFWKNGSAEEAIADGVEITSADGKVTRVHAKKEVIISAGALRSPLILELSGVGNPTILKKNNITPRVDLPTVGENLQDQFNNGMAGEGYGVLAGASTVTYPSISDVFGNETDSIVASLRSQLSDYAAATVKVSNGHMKQEDLERLYQLQFDLIVKDKVPIAEILFHPGGGNAVSSEFWGLLPFARGNIHISSNDPTAPAAINPNYFMFEWDGKSQAGIAKYIRKILRSAPLNKLIAKETKPGLSEIPATAADEKWVEWLKANYRSNFHPVGTAAMMPRSIGGVVDNRLRVYGTSNVRVVDASVLPFQVCGHLVSTLYAVAERASDLIKEDAKSA
Km [10]: 44.7 mM
Vmax [10]: 120 µmol/min/mg

B2: Aspergillus oryzae T1 glucose dehydrogenase (Ao-GDH, SEQ ID NO:4) variant G190C (Aspergillus oryzae; G212C) (protein)
chain: MNTTTYDYIVVGGGTSGLVVANRLSENPDVSVLLLEAGASVFNNPDVTNANGYGLAFGSAIDWQYQSINQSYAGGKQQVLRAGKALGGTSTINGMAYTRAEDVQIDVWQKLGNEGWTWKDLLPYYLKSENLTAPTSSQVAAGAAYNPAVNGKEGPLKVGWSGSLASGNLSVALNRTFQAAGVPWVEDVNCGKMRGFNIYPSTLDVDLNVREDAARAYYFPYDDRKNLHLLENTTANRLFWKNGSAEEAIADGVEITSADGKVTRVHAKKEVIISAGALRSPLILELSGVGNPTILKKNNITPRVDLPTVGENLQDQFNNGMAGEGYGVLAGASTVTYPSISDVFGNETDSIVASLRSQLSDYAAATVKVSNGHMKQEDLERLYQLQFDLIVKDKVPIAEILFHPGGGNAVSSEFWGLLPFARGNIHISSNDPTAPAAINPNYFMFEWDGKSQAGIAKYIRKILRSAPLNKLIAKETKPGLSEIPATAADEKWVEWLKANYRSNFHPVGTAAMMPRSIGGVVDNRLRVYGTSNVRVVDASVLPFQVCGHLVSTLYAVAERASDLIKEDAKSA
Km [11]: 51.3 mM
Vmax [11]: 119 µmol/min/mg
